Measurements taken from patent US7939589B2, “Polyhydroxy-diamines as low odor, low VOC multi-functional additives for paints and coatings” (Angus Chemical Company, priority 2009, dated 2011).

How the values were obtained:
[1] = Volatile organic content (VOC) of the neat amine, modified EPA Method 24; assay type: physicochemical; settings: for VOC / Volatility by the modified EPA Test Method 24: neat amine; for VOC: 1 h at 105-110° C., percent weight loss
Method: Volatile Organic Content (VOC). VOC is measured following EPA Method 24. The amines are weighed in a pan and kept in an oven for 1 h at 105-110° C. The percent weight loss is reported as the VOC, corrected for the water content in the sample which can be measured by Karl Fisher Titration.

[2] = pKa of the neat neutralizer by titration with hydrochloric acid; assay type: physicochemical; settings: neat amine; for pKa: titration; for pK1: first pKa by titration; for pK2: second pKa by titration
Method: pKa. pKa is measured by titration with a hydrochloric acid titrant solution, using an automated titrator that monitors pH with a combination electrode. The titrator plots pH vs. volume of titrant added, and first determines the titration endpoint(s) of each amine as the volume of titrant added at the inflection point(s) of the curve. The titrator reports the amine pKa value as the pH value at which one-half of the endpoint titrant volume has been delivered, or in the case of multiple endpoints, multiple pKa values are determined using the midpoints between titration endpoints. The inventive amines tested in this example each have two pKa values, due to the two different amine groups in each compound's respective molecular structure.

Compound	VOC contribution [1]	pKa [2]	VOC [1] [%]	pK1 [2]	pK1 ([2]; listed as TA-AcyHM)	pK2 [2]	pK2 ([2]; listed as TA-AcyHM)	Volatility by the modified EPA Test Method 24 [1] [%]
CC(C)(N)CNC(CO)(CO)CO [2-(2-amino-2-methylpropylamino)-2-(hydroxymethyl)propane-1,3-diol]	3.9%							
CCC(N)(CO)CO [AEPD, 2-Amino-2-ethyl-1,3-propane-diol, reference compound]		8.8	19					
CC(C)(N)CO [AMP, 2-Amino-2-methyl-1-propanol, reference compound]	100%	9.7	100					
CCCCN(CCO)CCO [NBDA, N-Butyl-diethanolamine, reference compound]		9	21					
NC1(CNC(CO)(CO)CO)CCCCC1 [TA-ACyHM, 2-((1-aminocyclohexyl)methylamino)-2-(hydroxymethyl)propane-1,3-diol]	essentially zero VOC contribution		3.8	9.7	pK1 9.7	4.5	pK2 4.5	3.8
CC(C)(N)CNC(CO)(CO)CO [TA-AMP, 2-(2-Amino-2-methylpropylamino)-2-(hydroxymethyl)propane-1,3-diol]			3.9					3.9
